One series has as its system mouse sarcoma S180. Nature of the series: Mouse sarcoma S180 model, inhibition of tumor growth. As to the method:
50 female ICR strain mice, weighing 19–22 g, were randomly divided into 5 groups of 10 each. S180 sarcoma mass (about 2 mm^3 each) was transplanted subcutaneously into the right armpits of all animals following standard procedure. 3 test groups were given N-(12-methyl-tridecyl)hydrazine hydrochloride (Sample) at 0.1, 0.2, and 0.4 g/kg intragastrically (i.g.) daily for 11 days. The positive control group was given a single dose of cytoxan (CTX) i.g. (25 mg/kg) on day 1. The negative control group was given 0.8% Tween 80 at 0.4 ml/10 g daily for 11 days. On the 12th day, all mice were sacrificed and the tumor was isolated and weighed. The rate of inhibition of tumor growth was calculated and subject to t-test.

The test system of series [1] is immune organs (thymus and pancreas). Nature of the series: Weights of immune organs (organ indices). The format is in vivo, ICR strain mice. The source says: The mice were sacrificed after the Serum hemolysinogenesis test above and the thymus and pancreas were collected and weighed.
For another series, the system named is serum hemolysinogenesis. The format is in vivo, ICR strain mice. Here is the method: The method of administration in each group was the same as above (phagocytic function). However, on the 6th day after administration, 0.2 ml 3:5 (V/V) sheep red blood cell (RBC) suspension was injected i.p. into each mouse. 4 days later (day 10), blood was drawn from all animals and serum was prepared and then diluted 600 times. 1 ml diluted serum was mixed with 0.5 ml 10% sheep RBC suspension. N.S. was used as blank control. All samples were incubated at 37° C. for 30 minutes, and centrifuged (2000 rev/min) for 5 minutes. The supernatant was collected for measurement of OD540 and HC50 was calculated.

In series [2] the test system is reticuloendothelial system. Nature of the series: Phagocytic function of reticuloendothelial system, serum clearance index of carbon grain. The class given is in vivo, ICR strain mice. As to the method: One group was given N.S. at 20 ml/kg i.g. as a normal control. A positive control group was given CTX i.g. at 25 mg/kg on day 1 and 6.
Another series relates to UVB-induced skin cancer. Nature of the series: Prevention of ultraviolet B ray (UVB)-induced skin cancer, DMBA-initiated. The format is in vivo, SKH-1 hairless mice. The following applies: topical 200 μl of 10% Sample solution once a day, UVB 180 mJ/cm^2 per day, end of 30 weeks. Here is the method:
N-(12-methyl-tridecyl)hydrazine hydrochloride (Sample) was resolved with 0.8% Tween resulting in a final concentration of 10%.
Forty female SKH-1 hairless mice were randomly divided into control and test groups of 20 each. Each mouse in both groups was treated topically once with DMBA (5.12 μg dissolved in 200 μl acetone solution) to achieve tumor initiation. One week later (day 8), animals in test group started to receive topical application of 200 μl. Sample solution once a day. The control group received 200 μl Tween 80 solvent instead every day. Thirty minutes after the application, animals in both groups were exposed to UVB (290–320 nm) radiation at the dosage of 180 mJ/cm^2 per day to induce growth of tumor. The animals were evaluated for tumor development at the end of 30 weeks.

Series [3] concerns body skin ulcerous wounds (inflammation). Nature of the series: Topical application to patients with body skin ulcerous wounds. The following applies: oil state applied directly on inflamed surface. The format is in vivo, human. The source says: 12-Methyl-2-tetradecenoic acid in an oil state was directly applied on the inflamed surface of patients with body skin ulcerous wounds.

The subject of series [4] is oral adnoma and tongue cancer. The series can be described thus: Topical application to patients of oral adnoma and tongue cancer. The format is in vivo, human. The following applies: oil state applied directly on focus surface, about one week later. The source says:
12-Methyl-2-tetradecenoic acid in an oil state was directly applied on the focus surface of oral or tongue to patients of oral adnoma and tongue cancer.

[5] abbreviates: Sample 0.1 g/kg i.g. + CTX 25 mg/kg.
The mark [6] stands for this setting: Sample 0.4 g/kg i.g. + CTX 25 mg/kg.
The mark [7] stands for this setting: normal mice, Sample 0.4 g/kg i.g.

Where two headings read alike, the source gives them in different places. Marks after values point to notes of the source that are not given here.

Regarding `CC(C)CCCCCCCCCCCNN.Cl` [Compound 45, N-(12-methyl-tridecyl)hydrazine hydrochloride], the “Inhibition Rate” value worked out at 36.36% in the series on mouse sarcoma S180 (Sample 100 mg/kg i.g. daily for 11 days), 62.73% in the series on mouse sarcoma S180 (Sample 200 mg/kg i.g. daily for 11 days) and 70.00% in the series on mouse sarcoma S180 (Sample 400 mg/kg i.g. daily for 11 days). For the same compound, the “Tumor Weight (X ± SD)” value in the series on mouse sarcoma S180 (Sample 100 mg/kg i.g. daily for 11 days, 12th day) is 0.70 ± 0.12^b g; with mouse sarcoma S180 (Sample 200 mg/kg i.g. daily for 11 days, 12th day), 0.41 ± 0.10^b g; with mouse sarcoma S180 (Sample 400 mg/kg i.g. daily for 11 days, 12th day) it was 0.33 ± 0.10^b g. For the same compound, the Indices of pancreas in series [1] (setting [5]) is 2.459 ± 0.799^ mg/10 g avoirdupois; in series [1] (setting [6]) it was 3.506 ± 1.223^ mg/10 g avoirdupois; in series [1] (setting [7]) it was 4.541 ± 0.508^a mg/10 g avoirdupois. The Indices of thymus in series [1] (setting [5]) is given as 2.448 ± 0.603^a mg/10 g avoirdupois; in series [1] (setting [6]), 3.307 ± 0.721^a mg/10 g avoirdupois; in series [1] (setting [7]), 3.617 ± 1.334^a mg/10 g avoirdupois. Also, the “indices of immune organs after combined administration” value in series [1] (mice treated by CTX, combined with Sample) is given as “these indices increased”. The “effect on the indices of immune organs” value in series [1] (normal mice, thymus and pancreas (P1,3>0.05)) is listed as “no significant effect”. Besides, the “HC50 (X ± SD)” value with serum hemolysinogenesis (setting [5]) is 22.45 ± 4.12; in the series on serum hemolysinogenesis (setting [6]), 24.01 ± 3.87; in the series with serum hemolysinogenesis (normal mouse, Sample 0.4 g/kg i.g.) it was 32.08 ± 5.06. In the series with serum hemolysinogenesis (normal or immune-compromised mouse), the “effects on serum hemolysinogenesis” value is “no obvious effects”. In addition, in series [2] (CTX-treated mouse, Sample 100 and 400 mg/kg), the “effect on the clearance of Carbon grain” value is listed as “improve the clearance of Carbon grain in CTX-treated mouse to a certain extent”. The “K (X ± SD), serum clearance index of carbon grain” value in series [2] (Sample 100 mg/kg i.g. daily for 9 days + CTX 25 mg/kg on day 1 and 6) was 0.0433 ± 0.0401; in series [2] (Sample 400 mg/kg i.g. daily for 9 days + CTX 25 mg/kg on day 1 and 6), 0.0603 ± 0.0371; in series [2] (normal mouse, Sample 400 mg/kg i.g. daily for 9 days) it was 0.0792 ± 0.0230. Also, in series [2] (normal mouse (P1,3>0.05)), the “effect on the Clearance Index of Carbon grain” value is on record as “no obvious effect”. Also, the “average size of cancer smaller than control” value with UVB-induced skin cancer was found to be 85%. Besides, the “reduction in tumor incidence compared to control group” value in the series on UVB-induced skin cancer came to 45%.

On to `CCC(C)CCCCCCCC/C=C/C(=O)O` (centres unmarked) [Compound 1, 12-Methyl-2-tetradecenoic acid], for which, in series [3], the “anti-inflammation function compared to common anti-inflammatory cream” value is reported as “better anti-inflammation function” and the “healing of ulcerous wound” value is “the ulcerous wound healed quickly”. Moreover, the “effect on focus of oral adnoma and tongue cancer” value in series [4] is reported as “the focus reduced, swelling disappeared”.

On to `O=P1(N(CCCl)CCCl)NCCCO1` (centres unmarked) [CTX, cytoxan, reference compound], for which the “Inhibition Rate” value in the series with mouse sarcoma S180 (CTX 25 mg/kg i.g. single dose on day 1) is 71.82%. Also, in the series on mouse sarcoma S180 (CTX 25 mg/kg i.g. single dose on day 1, 12th day), the “Tumor Weight (X ± SD)” value is 0.31 ± 0.11^b g. The “Body Weight after treatment (X ± SD)” value in the series with mouse sarcoma S180 (S180 mice, CTX 25 mg/kg i.g. single dose on day 1) was 25.6 ± 1.6 g. Besides, in series [1] (CTX 25 mg/kg i.g. alone), the Indices of pancreas is recorded as 2.154 ± 1.189^ mg/10 g avoirdupois and the Indices of thymus was 1.296 ± 0.665^ mg/10 g avoirdupois. Besides, the “HC50 (X ± SD)” value in the series with serum hemolysinogenesis (CTX 25 mg/kg i.g. alone) is recorded as 21.83 ± 4.29. Moreover, in series [2] (CTX 25 mg/kg i.g. on day 1 and 6 alone), the “K (X ± SD), serum clearance index of carbon grain” value is reported as 0.0260 ± 0.0116.

These data come from US7129366B2, “Group of a novel anti-cancer compounds with specific structure” (Yang's Biochem Co. Ltd., priority 2001, dated 2006).
